Key:
TEAD1 = TEAD1 (Homo sapiens, UniProt P28347); assay: Thermal shift assay TEAD1; type: binding
Experimental: (§1) Example B: Thermal Shift Assay
(§2) 1) Prepare a fresh dilution of Protein Thermal Shift™ Dye (Applied Biosystems, 1000×) to 8× by […].
(§3) 2) To ensure the same DMSO concentration, the compounds were diluted as follows: Prepare 10 mM stock solution of compounds;
(§4) The final DMSO concentration was 0.1%
(§5) 10 μM: Diluting stock solution to 100 μM by using PBS.
(§6) 1 μM: Diluting stock solution to 1 mM by using DMSO, then dilute to 10 μM by using PBS.
(§7) TEAD1: the stock concentration was 2.9 mg/ml; the final concentration was 0.2 mg/ml. TEAD2: the stock concentration was 1.8 mg/ml; the final concentration was 0.08 mg/ml.
(§8) 4) Place the appropriate reaction plate or tubes on ice, then prepare the protein melt reactions:
(§9) 5) Pipet each reaction up and down 10 times to mix well.
(§10) 6) Seal the plate with MicroAmp™ Optical Adhesive Film, spin it at 1000 rpm for 1 minute.
(§11) 7) Set up and run on the qPCR instrument.
(§12) Using thermal Shift™ Software v1.3 to analysis.

TEAD4 = TEAD4 (Homo sapiens, UniProt Q15561); assay: Thermal shift assay TEAD4; type: binding
Experimental: as §1, §2, §3, §4, §5, §6
TEAD4: the stock concentration was 2.3 mg/ml; the final concentration was 0.1 mg/ml.
as §8, §9, §10, §11, §12

TEAD2 = TEAD2 (Homo sapiens, UniProt Q15562); assay: Thermal shift assay TEAD2; type: binding
Experimental: as §1, §2, §3, §4, §5, §6, §7, §8, §9, §10, §11, §12

TEAD3 = TEAD3 (Homo sapiens, UniProt Q99594); assay: Thermal shift assay TEAD3; type: binding
Experimental: as §1, §2, §3, §4, §5, §6
TEAD3: the stock concentration was 2.4 mg/ml; the final concentration was 0.1 mg/ml.
as §8, §9, §10, §11, §12

NCI-H226 cells = assay: Cell growth assay (CellTiter-Glo); type: cell-based, human; conditions: Homo sapiens, NCI-H226, 168 h, 7 days treatment, CellTiter-Glo luminescence, read-out: H226 CTG IC50
Experimental: Example A: Cell Growth Assay
CellTiter-Glo reagent (CTG reagent, Promega, G7573).
[…] Also seeding an extra plate as Day 0 control measurement. The microplates were incubated at 37° C., 5% CO2 overnight.
Compounds were 3-fold serial diluted in DMSO and final top-concentration was […], 10 points. 0.3% DMSO as vehicle control. In addition, […] of CTG reagent was added into the extra plate and incubated at room temperature for 30 minutes and detected luminescence signals as Day 0 control by using EnVision (PerkinElmer, 2104 Mutilabel Reader).
Incubated other compounds treated plates at 37° C. for another 7 days and […] of CTG reagent was added into the plates and incubated at room temperature for 30 minutes and detected luminescence signals.
Day 0 luminescence signals were used as negative control or baseline. • Signalday0=average luminescence signals of Day 0 control cells. • Signalblank control=average luminescence signals of blank control. • SignalDMSO vehicle control=average luminescence signals of Day 7 DMSO vehicle control cells. • Signalcpds treatment=luminescence signals of Day 7 compounds treatment cells. Inhibition %=1−(Signalcpds treatment−Signalblank control)/(SignalDMSO vehicle control−Signalblank control)*100.
(Inhibitory concentration 50% (IC50) and maximum inhibition % were calculated using dose response curves.

Chain of TEAD3 (Q99594 whole entry, species assumed): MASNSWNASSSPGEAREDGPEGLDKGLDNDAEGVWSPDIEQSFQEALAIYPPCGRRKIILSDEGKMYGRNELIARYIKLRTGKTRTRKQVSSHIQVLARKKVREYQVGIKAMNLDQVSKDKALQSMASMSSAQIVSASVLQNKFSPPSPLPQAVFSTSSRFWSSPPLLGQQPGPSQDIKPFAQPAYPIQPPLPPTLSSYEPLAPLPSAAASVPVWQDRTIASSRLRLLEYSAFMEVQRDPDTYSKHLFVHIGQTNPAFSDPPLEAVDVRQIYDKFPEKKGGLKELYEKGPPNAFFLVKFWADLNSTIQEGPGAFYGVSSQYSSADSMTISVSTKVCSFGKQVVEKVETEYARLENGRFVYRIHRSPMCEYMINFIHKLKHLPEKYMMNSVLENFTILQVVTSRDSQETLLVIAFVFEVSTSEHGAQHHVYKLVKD
Chain of TEAD4 (Q15561 whole entry, species assumed): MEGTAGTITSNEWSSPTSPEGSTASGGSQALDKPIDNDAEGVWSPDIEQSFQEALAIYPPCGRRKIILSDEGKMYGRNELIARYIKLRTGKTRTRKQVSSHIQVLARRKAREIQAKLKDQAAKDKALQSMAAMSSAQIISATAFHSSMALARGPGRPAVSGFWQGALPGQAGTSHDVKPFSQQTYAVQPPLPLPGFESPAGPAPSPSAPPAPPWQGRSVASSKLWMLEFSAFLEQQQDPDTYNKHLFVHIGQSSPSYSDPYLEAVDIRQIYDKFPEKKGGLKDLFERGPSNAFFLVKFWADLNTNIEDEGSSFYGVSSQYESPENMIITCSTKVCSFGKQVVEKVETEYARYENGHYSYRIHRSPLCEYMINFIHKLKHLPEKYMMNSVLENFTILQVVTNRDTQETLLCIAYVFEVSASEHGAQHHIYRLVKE
Chain of TEAD1 (P28347 whole entry, species assumed): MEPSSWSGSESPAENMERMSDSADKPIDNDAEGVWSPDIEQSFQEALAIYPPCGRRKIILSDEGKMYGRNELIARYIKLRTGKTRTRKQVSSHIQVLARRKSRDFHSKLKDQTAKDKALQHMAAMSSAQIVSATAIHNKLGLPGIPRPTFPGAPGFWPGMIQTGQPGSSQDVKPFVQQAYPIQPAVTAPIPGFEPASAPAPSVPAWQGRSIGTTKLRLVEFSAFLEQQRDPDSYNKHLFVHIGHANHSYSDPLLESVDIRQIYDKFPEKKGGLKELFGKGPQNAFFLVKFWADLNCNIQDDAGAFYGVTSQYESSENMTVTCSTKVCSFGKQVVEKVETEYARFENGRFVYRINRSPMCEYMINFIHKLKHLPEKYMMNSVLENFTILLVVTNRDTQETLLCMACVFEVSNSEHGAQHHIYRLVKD
Chain of TEAD2 (Q15562 whole entry, species assumed): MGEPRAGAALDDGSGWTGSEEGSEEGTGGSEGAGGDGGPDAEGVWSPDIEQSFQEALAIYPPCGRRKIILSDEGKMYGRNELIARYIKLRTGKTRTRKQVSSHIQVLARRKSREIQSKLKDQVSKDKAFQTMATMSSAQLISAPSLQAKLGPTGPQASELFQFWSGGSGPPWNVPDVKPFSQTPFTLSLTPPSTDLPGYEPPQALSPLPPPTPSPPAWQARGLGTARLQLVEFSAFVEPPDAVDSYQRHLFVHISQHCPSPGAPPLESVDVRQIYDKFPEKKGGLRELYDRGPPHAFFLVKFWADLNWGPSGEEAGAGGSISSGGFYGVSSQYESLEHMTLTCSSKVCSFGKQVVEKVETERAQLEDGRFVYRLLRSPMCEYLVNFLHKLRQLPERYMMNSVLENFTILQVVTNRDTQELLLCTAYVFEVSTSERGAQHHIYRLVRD

Row | Compound | TEAD1 ΔTm (TEAD1) [°C] | TEAD4 ΔTm (TEAD4) [°C] | TEAD2 ΔTm (TEAD2) [°C] | TEAD3 ΔTm (TEAD3) [°C] | IC50 (NCI-H226 cells) [nM]
1 | Cn1ncc2c(C3C[C@H]3C(N)=O)cc(Oc3ccc(C(F)(F)F)cc3)cc21 (mixture of isomers) [Example 35] | 5.4 | 6.1 | 11.2 | 5.4 | < 100
2 | CNC(=O)[C@@H]1CC1c1cc(Oc2ccc(C(F)(F)F)cc2)cc2c1cnn2C (mixture of isomers) [Example 36] | 6.8 | 4.3 | 12.9 | 4.6 | < 100
3 | CNC(=O)[C@@H]1CC1c1cc(OCc2ccc(C(F)(F)F)cc2)cc2c1cnn2C (mixture of isomers) [Example 37] | 0.2 | 0.1 | 0.9 | 0.1 | 1000 to 30000
4 | CNC(=O)[C@@H]1CC1c1cc(-c2ccc(C(F)(F)F)cc2)cc2cccnc12 (mixture of isomers) [Example 38] | 1.1 | 0.2 | 0.8 | 0.5 | 100 to 500
5 | CNC(=O)[C@@H]1CC1c1cc(-c2ccc(C(F)(F)F)cc2)cc2scnc12 (mixture of isomers) [Example 39] | 0 | 0 | 0 | 0 | 1000 to 30000
6 | CNS(=O)(=O)[C@@H]1CC1c1cc(Oc2ccc(C(F)(F)F)cc2)cc2cn(C)nc12 (mixture of isomers) [Example 51] | 7.5 | 9.1 | 9.7 | 10.6 | 1000 to 30000
7 | CC(C)NC(=O)[C@@H]1CC1c1cc(Oc2ccc(C(F)(F)F)cc2)cc2cn(C)nc12 (mixture of isomers) [Example 56] | 8.3 | 8.6 | 9 | 7.2 | < 100
8 | CC(NC(=O)[C@@H]1CC1c1cc(Oc2ccc(C(F)(F)F)cc2)cc2cn(C)nc12)c1ccccn1 (mixture of isomers) [Example 57] | 7.6 | 14 | 9.4 | 12.4 | 100 to 500
9 | CNC(=O)[C@@H]1CC1c1cc(Oc2ccc(C(F)(F)F)cc2)cc2cn(C3CC3)nc12 (mixture of isomers) [Example 78] | 9.2 | 6.6 | 11.1 | 0.4 | 100 to 500
10 | CNC(=O)[C@@H]1CC1c1cc(Oc2ccc(C(F)(F)F)cc2)cc2cn(C(F)F)nc12 (mixture of isomers) [Example 79] | 8.1 | 7.7 | 12.3 | 1.0 | 100 to 500
11 | CNC(=O)[C@@H]1CC1c1cc(Oc2ccc(C(F)(F)F)cc2)cc2cccnc12 (mixture of isomers) [Example 80] | 6.0 | 6.2 | 10.5 | 5.1 | 100 to 500
12 | CNS(=O)(=O)[C@@H]1CC1c1cc(Oc2ccc(C(F)(F)F)cc2)cc2cccnc12 (mixture of isomers) [Example 81] | 5.5 | 8.2 | 9.6 | 8.9 | 500 to 1000
13 | Cn1cc2cc(OC3CC4(C3)CC(F)(F)C4)cc(C3C[C@H]3C(=O)O)c2n1 (mixture of isomers) [Example 93] | 6.7 | 6.4 | 9.3 | 1.3 | 100 to 500
14 | CNC(=O)[C@@H]1CC1c1cc(OC2CC3(C2)CC(F)(F)C3)cc2cn(C)nc12 (mixture of isomers) [Example 94] | 3.3 | 2.6 | 6.5 | 0.7 | 100 to 500
15 | O=C(O)[C@@H]1C[C@H]1c1cc(Oc2ccc(C(F)(F)F)cc2)cc2c1NCCC2 (racemic) [Example 144] | 10.6 | 9.9 | 18.2 | 13.1 | 1000 to 30000
16 | CNC(=O)[C@@H]1C[C@H]1c1cc(Oc2ccc(C(F)(F)F)cc2)cc2c1NCCC2 (racemic) [Example 145] | 4.8 | 2.9 | 9.9 | 1.0 | 100 to 500
17 | CNS(=O)(=O)[C@@H]1C[C@H]1c1cc(Oc2ccc(C(F)(F)F)cc2)cc2c1NCCC2 (racemic) [Example 146] | 5.5 | 6.7 | 12.0 | 1.0 | 100 to 500
18 | CNC(=O)[C@@H]1C[C@H]1c1cc(Oc2ccc(C(F)(F)F)cc2)cc2cn(C)nc12 (single isomer, unassigned) [Example 34a] | 5.2 | 5.2 | 10.2 | 1.4 | 100 to 500
19 | [2H]C([2H])([2H])NC(=O)[C@@H]1C[C@H]1c1cc(Oc2ccc(C(F)(F)F)cc2)cc2cn(C)nc12 (single isomer, unassigned) [Example 52] | 4.7 | 4.3 | 9.8 | −0.5 | 1000 to 30000
20 | [2H]C([2H])([2H])NC(=O)[C@H]1CC1c1cc(Oc2ccc(C(F)(F)F)cc2)cc2cn(C)nc12 (single isomer, unassigned) [Example 53] | 9.2 | 10.5 | 13.7 | 9.8 | < 100
21 | C[C@@H](CO)NC(=O)[C@@H]1CC1c1cc(Oc2ccc(C(F)(F)F)cc2)cc2cn(C)nc12 (single isomer, unassigned) [Example 54] | 8.5 | 9.5 | 9.8 | 1.2 | < 100
22 | C[C@H](CO)NC(=O)[C@@H]1CC1c1cc(Oc2ccc(C(F)(F)F)cc2)cc2cn(C)nc12 (single isomer, unassigned) [Example 55] | 11.3 | 11.5 | 11.1 | 10.2 | < 100
23 | CC(C)NC(=O)[C@@H]1C[C@H]1c1cc(Oc2ccc(C(F)(F)F)cc2)cc2cn(C)nc12 (single isomer, unassigned) [Example 56a] | 5.4 | 2.6 | 6.5 | −0.3 | 500 to 1000
24 | CC(C)NC(=O)[C@H]1C[C@@H]1c1cc(Oc2ccc(C(F)(F)F)cc2)cc2cn(C)nc12 (single isomer, unassigned) [Example 56b] | 9.1 | 12.5 | 10.0 | 8.1 | < 100
25 | Cn1cc2cc(Oc3ccc(C(F)(F)F)cc3)cc([C@H]3C[C@@H]3C(=O)N[C@@H](CO)c3ccccn3)c2n1 (single isomer, unassigned) [Example 59a] | 6.9 | 7.9 | 4.7 | 0.4 | 100 to 500
